Several values for one entry are separate records, joined by “and”; a condition that tells them apart may be missing. Identical values can stand only once.
Key:
IKH [1] = experiment: Patch-clamp of TQ-sensitive IKH component in LA cardiomyocytes of control and AT dogs; type: cell-based, canine; settings: at −110 mV
Description: Briefly, dogs were subjected to 7-13 days of AT at about 400 beats per minute (bpm). LA preparations were then coronary-perfused and studied intact in vitro or subjected to cardiomyocyte isolation. IKH was studied with patch clamp.
Adult dogs were divided into control and AT groups. AT dogs were initially anesthetized with diazepam (0.25 mg/kg IV), ketamine (5.0 mg/kg IV), and halothane (1% to 2%) for transvenous insertion of right ventricular (RV) and right atrial (RA) unipolar pacing leads connected to ventricular and atrial pacemakers implanted in the neck. Pacing began 24 hours after pacemaker implantation. AV block was created by radiofrequency catheter ablation and the RV demand-pacemaker was programmed to 80 bpm. The RA was then tachypaced (400 bpm) for 7-13 days.
On study days, dogs were anesthetized with pentobarbital (30 mg·kg^−1 I.V.) and artificially ventilated. Hearts and adjacent lung tissue were excised via a left thoracotomy and immersed in oxygenated Tyrode solution. […]
For single cardiomyocytes, currents were recorded with whole-cell patch-clamp at 36±0.5° C. […] To control for cell-size variability, currents are expressed as densities (pA/pF). […]

[2] = test system: instantaneous inward-rectifier current; experiment: Whole-cell patch-clamp of instantaneous inward-rectifier current in canine cardiomyocytes; type: cell-based; settings: 1 μM tertiapin-Q; not statistically significant
Description: (§1) Adult mongrel dogs of either sex (weighing about 20-35 kg) were anaesthetized with pentobarbital (30 mg kg^−1 I.V.) and artificially ventilated with room air. Hearts and adjacent lung tissue were relatively quickly excised through a left lateral thoracotomy and immersed in oxygenated Tyrode solution (composition detailed hereinbelow) at room temperature. […] A left atrial (LA) preparation with the PVs intact was perfused via the left circumflex coronary artery, and subjected to either standard fine-tipped microelectrode recording of action potentials (APs) or cardiomyocyte isolation with collagenase-containing solutions, as previously described (Ehrlich et al. 2003). Six dogs were subjected to atrial tachycardia-induced remodeling induced by 1 week of atrial pacing at about 400 beats min^−1 after ablation of the AV node, as described in Li et al. 1999. Animal care and handling procedures followed the guidelines of the Canadian Council on Animal Care.
To isolate LA and PV cardiomyocytes, the proximal circumflex artery was cannulated and the distal ends of PV myocardial sleeves (approximately 1-1.5 cm from the PV-LA junction) were marked with silk thread prior to subsequent enzyme perfusion with collagenase (100 U ml^−1, Worthington, type II), in order to facilitate localization of PV sleeves after enzymatic digestion. […] All comparisons were based on PV and LA cardiomyocytes isolated from each dog on each experimental day. After isolation, cells were stored at 4° C. and studied on the same day. […]
Currents were recorded with the whole-cell patch-clamp technique at 36±0.5° C., as described in Yue et al. 1996. […] Capacitance was assessed using 5 mV, 10 ms hyperpolarizing steps from a holding potential (HP) of −60 mV. […]
Currents were recorded with hyperpolarizing and depolarizing pulses (generally 4 s duration) from a HP of −40 mV to selected test potentials (TPs). […] For the determination of reversal potentials, tail currents were recorded after 1.6 s pulses to −120 mV followed by 3.2 s depolarizations to TPs between −110 and +20. […]

Ito = settings: at concentrations of 8 to 30 nM; cited from earlier work
IKH [3] = type: cell-based, canine
Description: as §1
To isolate LA and PV cardiomyocytes, the proximal circumflex artery was cannulated and the distal ends of PV myocardial sleeves (approximately 1-1.5 cm from the PV-LA junction) were marked with silk thread prior to subsequent enzyme perfusion with collagenase (100 U ml^−1, Worthington, type II), in order to facilitate localization of PV sleeves after enzymatic digestion. […] All comparisons were based on PV and LA cardiomyocytes isolated from each dog on each experimental day. After isolation, cells were stored at 4° C. and studied on the same day. For standard microelectrode experiments, intact tissue preparations including the LA and adjacent PVs were mounted in a chamber and perfused via the circumflex artery with oxygenated Krebs solution at 36±0.5° C. (see for example Kneller et al. 2002).
Currents were recorded with the whole-cell patch-clamp technique at 36±0.5° C., as described in Yue et al. 1996. All junction potentials were zeroed prior to formation of gigaohm seals. […] Capacitance was assessed using 5 mV, 10 ms hyperpolarizing steps from a holding potential (HP) of −60 mV. […] Original recordings are shown in terms of current amplitude, but mean data are presented as current density (pA pF−1) to control for variability in cell size.
Currents were recorded with hyperpolarizing and depolarizing pulses (generally 4 s duration) from a HP of −40 mV to selected test potentials (TPs). Recordings were repeated 3 times, and mean values obtained. For the determination of reversal potentials, tail currents were recorded after 1.6 s pulses to −120 mV followed by 3.2 s depolarizations to TPs between −110 and +20. All voltage protocols were delivered at 0.1 Hz.
Tyrode solution contained (mM): NaCl 136, KCl 5.4, MgCl2 1, CaCl2 1, NaH2PO4 0.33, Hepes 5 and dextrose 10 (pH 7.35 with NaOH). The cell-storage solution contained (mM): KCl 20, KH2PO4 10, dextrose 10, mannitol 40, L-glutamic acid 70, β-OH-butyric acid 10, taurine 20, EGTA 10 and 0.1% bovine serum albumin (pH 7.3, KOH). Nifedipine (5 μM) was used to suppress L-type Ca^2+ current (ICa) in all experiments. 4-Aminopyridine (4-AP, 2 mM) was added to suppress transient outward current (Ito). […] Na+ current (INa) contamination was avoided by using a HP of −40 mV for recording of hyperpolarization-induced currents and by substitution of equimolar Tris-HCl for external NaCl for tail-current recordings.

tertiapin-Q
100 nM TQ-sensitive component of IKH (IKH [1]; AT dogs): −2.8±0.5 pA/pF
100 nM TQ-sensitive component of IKH (IKH [1]; control dogs): −1.7±0.5 pA/pF
decrease of mean instantaneous current [2]: 25%
effect on Ito (in words) (Ito): no effect
effect on time-dependent IKH (in words) (IKH [3]; 200 nM tertiapin-Q, PV cardiomyocyte): abolished
effect on time-dependent current (in words) (IKH [3]; 1 μM tertiapin-Q, PV cardiomyocytes): eliminated
IC50 (IKH [3]; at −120 mV, PV cardiomyocytes, read-out: IC50 for time-dependent IKH): 0.01 µM and ~0.01 µM
mean end-pulse current (IKH [3]; at −120 mV, after 200 nM tertiapin-Q (before −2.84±0.89)): 0.09±0.01 pA pF^−1

— patent publication US20060094003A1, “Acetylcholine-dependent current as a novel ionic target for atrial fibrillation” (priority 2004, published 2006)
